Data on 16 molecules can be found in patent US20230192617A1, “AZABICYCLIC(THIO)AMIDES AS FUNGICIDAL COMPOUNDS” (Bayer CropScience Aktiengesellschaft, priority 2020, published 2023).

One data set concerns Botrytis cinerea. The experiment in a line: B-11. Botrytis cinerea in vitro cell test. The data set is classed as cell-based. As to conditions: 144 h, 20 ppm of active ingredient, 6 days incubation, liquid culture, absorbance, read-out: efficacy (inhibition of fungal growth). The essentials:
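B. cinerea spores were grown in liquid culture with compound (DMSO ≤1% final). Mycelium growth was measured spectrometrically after 6 days, with inhibition taken as absorbance relative to untreated control wells.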

The nature of data set [1]: Measurement of Log P values by HPLC on reversed phase columns (EEC directive 79/831 Annex V.A8). The data set is classed as physicochemical. As to conditions: reversed phase HPLC column, method [a]: LC-UV, acidic range, 0.1% formic acid in water and acetonitrile as eluent. The essentials:
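Log P derived from retention on reversed-phase columns (EEC directive 79/831 Annex V.A8), LC-UV, acetonitrile gradient 10% to 95% against water containing 0.1% formic acid, 0.001 M ammonium acetate, or 0.1% phosphoric acid; several values per method separated by "+".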

For data set [2], the system named is Colletotrichum lindemuthianum. The experiment in a line: B-8. Colletotrichum lindemuthianum in vitro cell test. Type of data set: cell-based. As to conditions: 144 h, 20 ppm of active ingredient, 6 days incubation, liquid culture, absorbance, read-out: efficacy (inhibition of fungal growth). In short, it runs like this: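 Liquid-culture germination/growth test: compounds in ≤1% final DMSO were added to spore-containing medium. Fungal growth was quantified spectrophotometrically after 6 days of incubation and expressed as inhibition versus untreated controls.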

In a further data set the test system is Pyrenophora teres. The experiment in a line: In vivo preventive test on Pyrenophora teres (net blotch on barley). As to conditions: 240 h, 500 ppm of active ingredient, preventive spray on barley, evaluated 10 days after inoculation, read-out: efficacy. In short, it runs like this:
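Net blotch spores were sprayed onto barley leaves one day after foliar treatment with water-diluted DMSO/acetone/Tween 80 formulations (solvent-only controls). Plants were kept at 20° C: first 48 hours at 100% relative humidity, then 8 days at 70-80%.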

In a further data set the test system is Sphaerotheca fuliginea. The data set is described as follows: In vivo preventive test on Sphaerotheca fuliginea (powdery mildew on cucurbits). The note with it: Podosphaera fuliginea, 192 h; 500 ppm of active ingredient; preventive spray on gherkin; evaluated 8 days after inoculation; read-out: efficacy. The essentials: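 This is a preventive spray test on gherkin seedlings, with compound formulated in DMSO/acetone/Tween 80 in water and solvent-only controls. Spore inoculation followed one day after treatment. Incubation lasted 8 days at 20 °C, 70–80% RH.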

Data set [3] has as its system Colletotrichum lindemuthianum. The experiment in a line: In vivo preventive test on Colletotrichum lindemuthianum (leaf spot on bean). The note with it: 168 h, 500 ppm of active ingredient, preventive spray on bean, evaluated 7 days after inoculation, read-out: efficacy. The essentials: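 Young bean plants sprayed with compound in DMSO/acetone/Tween 80 diluted in water; solvent-only controls. Inoculated 24 h later with C. lindemuthianum spore suspension, then kept 24 h at 20 °C/100% RH and 6 days at 20 °C/90% RH.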

The subject of a further data set is Alternaria alternata. The data set is described as follows: Alternaria alternata in vitro cell test. The data set is classed as cell-based. The note with it: 120 h, 20 ppm of active ingredient, liquid culture, 5 days incubation, spectrometric measurement of mycelium growth, read-out: efficacy (inhibition of fungal growth). In short, it runs like this: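 Spectrometric readout of mycelial growth after 5-day incubation gauged compound effects on spore germination and growth of A. alternata in liquid medium. Compounds were delivered in DMSO at ≤1% final. Absorbance was compared with untreated controls to give inhibition.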

The next data set relates to Alternaria brassicae. The experiment in a line: In vivo preventive test on Alternaria brassicae (leaf spot on radish or cabbage). The note with it: 500 ppm of active ingredient, preventive spray on radish or cabbage, evaluated 3 to 4 days after inoculation, read-out: efficacy. The essentials: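 Protective spray on young radish or cabbage: actives in water diluted from DMSO/acetone/Tween 80, with solvent-only controls. Leaves were challenged after 24 h with a spore suspension, and plants were held at 100% RH, 20 °C for 3 to 4 days.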

In general, inhibition refers to the share of the control response that was lost under treatment. Broadly, the chromatographic logP is a lipophilicity value derived from retention on a column. Read a low chromatographic logP as a more hydrophilic compound. `Cc1ccc(C(F)CNC(=O)c2c(Oc3cccc(Cl)c3F)nnc3c2CCCC3)c(C)c1` (centres unmarked) [I-136]: the inhibition at 20 ppm (in the data set on Botrytis cinerea; in data set [2]; in the data set with Alternaria alternata) was 90 to 100% throughout. The molecule also came in with a chromatographic logP in data set [1] of 3.78. In addition, the pest or weed control at 500 ppm (in the data set on Pyrenophora teres; with Sphaerotheca fuliginea; in data set [3]; in the data set on Alternaria brassicae) was 90 to 100% in each case.

Turning to `Cc1ccc([C@@H](F)CNC(=O)c2c(Oc3cccc(C(F)(F)F)c3)nnc3ccccc23)cc1C` (racemic) [I-084], the inhibition at 20 ppm (with Botrytis cinerea; in data set [2]; in the data set with Alternaria alternata) was 90 to 100% throughout. Besides, the chromatographic logP in data set [1] turned out to be 4.19. Further, the pest or weed control at 500 ppm in the data set with Pyrenophora teres fell in the range of 90 to 100%; in the data set on Sphaerotheca fuliginea, 80 to 89%; in data set [3], 90 to 100%; with Alternaria brassicae, 90 to 100%.

As to `O=C(NCC(F)c1ccc(Cl)cc1Cl)c1c(Oc2cccc(Cl)c2F)nnc2c1CCCC2` (centres unmarked) [I-149], the inhibition at 20 ppm (with Botrytis cinerea; in data set [2]; in the data set with Alternaria alternata) was 90 to 100% each time. The molecule further returned a chromatographic logP in data set [1] of 3.94. For the same molecule, the pest or weed control at 500 ppm (in the data set with Pyrenophora teres; with Sphaerotheca fuliginea; in data set [3]; in the data set on Alternaria brassicae) was 90 to 100% in each case.

Regarding `O=C(NCC(F)c1ccc(Cl)cc1Cl)c1c(Oc2cccc(Cl)c2F)nnc2c1CCC2` (centres unmarked) [I-188], the inhibition at 20 ppm (with Botrytis cinerea; in data set [2]; in the data set with Alternaria alternata) was 90 to 100% throughout. This molecule also registered a chromatographic logP in data set [1] of 3.89. For the same molecule, the pest or weed control at 500 ppm (in the data set with Pyrenophora teres; in the data set with Sphaerotheca fuliginea; in data set [3]; in the data set on Alternaria brassicae) was 90 to 100% in each case.

For `Cc1ccc(C(F)(F)CNC(=O)c2c(Oc3cccc(C(F)F)c3)nnc3c2CCCC3)c(Cl)c1` [I-243], the inhibition at 20 ppm (with Botrytis cinerea; in data set [2]; in the data set on Alternaria alternata) was 90 to 100% throughout. In data set [1], this molecule registered a chromatographic logP of 3.63. The pest or weed control at 500 ppm (in the data set with Pyrenophora teres; with Sphaerotheca fuliginea; in data set [3]; in the data set with Alternaria brassicae) was 90 to 100% throughout.

For the molecule `Cc1ccc2c(C(=O)NCC(F)(F)c3ccc(C)c(C)c3)c(Oc3cccc(C(F)(F)F)c3)nnc2c1` [I-246], the inhibition at 20 ppm (with Botrytis cinerea; in data set [2]; with Alternaria alternata) was 90 to 100% each time. This molecule also had a chromatographic logP in data set [1] of 4.66. Moreover, the pest or weed control at 500 ppm in the data set on Pyrenophora teres lay in the range of 80 to 89%; with Sphaerotheca fuliginea, 90 to 100%; in data set [3], 80 to 89%; in the data set on Alternaria brassicae, 90 to 100%.

Consider `Cc1ccc(C(F)(F)CNC(=O)c2c(Oc3cccc(C4CC4)c3F)nnc3c2CCCC3)c(Cl)c1` [I-141], for which the inhibition at 20 ppm (in the data set on Botrytis cinerea; in data set [2]; in the data set on Alternaria alternata) was 90 to 100% in each case. The molecule also displayed a chromatographic logP in data set [1] of 4.17. For the same molecule, the pest or weed control at 500 ppm (in the data set with Pyrenophora teres; in the data set on Sphaerotheca fuliginea; in data set [3]; with Alternaria brassicae) was 90 to 100% in each case.

With `O=C(NCC(F)(F)c1ccc(Br)cc1Cl)c1c(Oc2cccc(C(F)(F)F)c2)nnc2c1COCC2` [I-229], the inhibition at 20 ppm (with Botrytis cinerea; in data set [2]; in the data set on Alternaria alternata) was 90 to 100% throughout. In addition, the chromatographic logP in data set [1] is 3.94. Moreover, the pest or weed control at 500 ppm is 70 to 79% with Pyrenophora teres, 90 to 100% in the data set with Sphaerotheca fuliginea, 90 to 100% in data set [3] and 90 to 100% with Alternaria brassicae.

On to `O=C(NCC(F)(F)c1ccc(Br)cc1Cl)c1c(Oc2cccc(C(F)(F)F)c2)nnc2c1CCC2` [I-212], for which the inhibition at 20 ppm (in the data set with Botrytis cinerea; in data set [2]; with Alternaria alternata) was 90 to 100% in each case. Further, the chromatographic logP in data set [1] amounted to 4.17. Besides, the pest or weed control at 500 ppm (in the data set on Pyrenophora teres; in the data set on Sphaerotheca fuliginea; in data set [3]; with Alternaria brassicae) was 90 to 100% in each case.

`Cc1ccc(C(F)(F)CNC(=O)c2c(Oc3cccc(Cl)c3)nnc3c2CCCC3)c(Cl)c1` [I-139]: the inhibition at 20 ppm (in the data set with Botrytis cinerea; in data set [2]; in the data set with Alternaria alternata) was 90 to 100% each time. The molecule also had a chromatographic logP in data set [1] of 3.89. For the same molecule, the pest or weed control at 500 ppm in the data set with Pyrenophora teres is 80 to 89%; in the data set with Sphaerotheca fuliginea it was 90 to 100%; in data set [3] it was 90 to 100%; in the data set with Alternaria brassicae it was 90 to 100%.

Take `Cc1ccc(C(F)(F)CNC(=O)c2c(Oc3cccc(Br)c3)nnc3ccccc23)c(C)c1` [I-216]: the inhibition at 20 ppm (in the data set with Botrytis cinerea; in data set [2]; in the data set on Alternaria alternata) was 90 to 100% in each case. Also, in data set [1], the chromatographic logP was determined as 4.38. The pest or weed control at 500 ppm with Pyrenophora teres is 70 to 79%; in the data set with Sphaerotheca fuliginea, 90 to 100%; in data set [3], 90 to 100%; in the data set with Alternaria brassicae, 90 to 100%.

In the case of `Cc1ccc(C(F)(F)CNC(=O)c2c(Oc3cccc(C(F)(F)F)c3)nnc3c2CCC3)c(C)c1` [I-132], the inhibition at 20 ppm (with Botrytis cinerea; in data set [2]; in the data set with Alternaria alternata) was 90 to 100% throughout. The molecule further displayed a chromatographic logP in data set [1] of 4. Also, the pest or weed control at 500 ppm (with Pyrenophora teres; in the data set with Sphaerotheca fuliginea; in data set [3]; with Alternaria brassicae) was 90 to 100% throughout.

With `O=C(NCC(F)(F)c1ccc(Br)cc1Cl)c1c(Oc2cccc(Cl)c2F)nnc2c1CCC2` [I-213], the inhibition at 20 ppm (in the data set on Botrytis cinerea; in data set [2]; in the data set with Alternaria alternata) was 90 to 100% each time. In addition, in data set [1], the chromatographic logP was 4.05. Further, the pest or weed control at 500 ppm in the data set on Pyrenophora teres lay in the range of 80 to 89%; with Sphaerotheca fuliginea, 90 to 100%; in data set [3], 90 to 100%; with Alternaria brassicae, 90 to 100%.

As to `Cc1ccc(C(F)(F)CNC(=O)c2c(Oc3cccc(C(F)(F)F)c3)nnc3c2COCC3)c(Cl)c1` [I-124], the inhibition at 20 ppm (in the data set on Botrytis cinerea; in data set [2]; with Alternaria alternata) was 90 to 100% in each case. This molecule returned a chromatographic logP in data set [1] of 3.7. The pest or weed control at 500 ppm with Pyrenophora teres fell in the range of 80 to 89%; in the data set on Sphaerotheca fuliginea it was 90 to 100%; in data set [3], 90 to 100%; in the data set on Alternaria brassicae, 90 to 100%.

For the molecule `Cc1cc(Br)ccc1C(F)(F)CNC(=O)c1c(Oc2cccc(Cl)c2F)nnc2c1CCCC2` [I-152], the inhibition at 20 ppm (with Botrytis cinerea; in data set [2]; in the data set with Alternaria alternata) was 90 to 100% in each case. For the same molecule, the chromatographic logP in data set [1] worked out at 4.44. The pest or weed control at 500 ppm with Pyrenophora teres was 80 to 89%; with Sphaerotheca fuliginea, 90 to 100%; in data set [3], 90 to 100%; in the data set with Alternaria brassicae, 90 to 100%.

`Cc1ccc(C(F)(F)CNC(=O)c2c(Oc3cccc(C(F)F)c3)nnc3c2CCCC3)c(C)c1` [I-129]: the inhibition at 20 ppm (with Botrytis cinerea; in data set [2]; with Alternaria alternata) was 90 to 100% each time. The same molecule showed a chromatographic logP in data set [1] of 3.68. The pest or weed control at 500 ppm (in the data set with Pyrenophora teres; with Sphaerotheca fuliginea; in data set [3]; in the data set with Alternaria brassicae) was 90 to 100% in each case.
